Data: the COVID Moonshot data (paper PMC7615835)
Where “and” joins values, the source holds several entries; their conditions need not be identical. Equal entries are not always repeated.

What follows are molecules tested against SARS-CoV-2 Main Protease (SARS-CoV-2) (UniProt P0DTD1).
Work on C=CC(=O)N(c1ccc(C(C)(C)C)cc1)C(C(=O)NC(C)(C)C)c1cccnc1 (stereo not drawn) yielded an IC50 greater than 99000 nM. CCS(=O)(=O)Nc1ccc2c(NC(=O)C3CN(S(=O)(=O)CC4(C#N)CC4)Cc4ccc(Cl)cc43)cncc2c1 (stereo not drawn) showed an IC50 of less than 50 nM. Cc1ccc(-n2ncc3c(=O)n(CC(N)=O)cnc32)cc1C gave an IC50 greater than 99500 nM. In the case of Nc1cccc2c(=O)[nH]n(-c3cc(Cl)cc(CC(=O)Nc4cncc5ccccc45)c3)c(=O)c12, the IC50 is reported as 5920 nM. For O=C(CC1(C(=O)Nc2cncc3ccccc23)CCOc2ccc(Cl)cc21)N1CCCCC1c1nnc[nH]1 (stereo not drawn), the IC50 was 437 nM. O=C(Cc1cc(Cl)cc(Nc2ccc(-c3ccccc3)cc2)c1)Nc1cncc2ccccc12 was tested, and the IC50 was 2060 nM. In the case of CC1CN(C(=O)CC2(C(=O)Nc3cncc4ccccc34)CCOc3ccc(Cl)cc32)CCN1CCO (stereo not drawn), the IC50 is reported as greater than 99500 nM. In the case of COc1ccc(Nc2cc(Cl)cc(CC(=O)Nc3cncc4ccccc34)c2)c([N+](=O)[O-])c1, the IC50 is reported as 2120 nM. With O=C(CCl)N1CCC(c2nc(-c3cccnc3)nc3ccccc23)CC1 the IC50 was 18200 nM. With O=C(Cc1cccc(Cl)c1)Nc1cccnc1 the IC50 was 53700 nM. With CC1(CS(=O)(=O)N2Cc3ccc(Cl)cc3[C@@H](C(=O)Nc3cncc4ccccc34)C2)CC1 (stereo in doubt) the IC50 was 4580 nM. For Cc1ccncc1NC(=O)Cc1cc(C#N)cc(OC2CC(=O)N2)c1 (stereo not drawn), the IC50 was 11600 nM. In the case of O=C(c1cc(=O)[nH]c2ccccc12)N1CCN(c2cccc(C(F)(F)F)c2)CC1, the IC50 is reported as 3800 nM. O=C(CN1CC(C(=O)Nc2cncc3ccccc23)c2cc(Cl)ccc2C1=O)NCC1CCC1 (stereo not drawn) gave an IC50 of 107 nM. For O=C(Cc1cc(Cl)cc(Nc2ccc(Cl)nc2Cl)c1)Nc1cncc2ccccc12, the IC50 was 2310 nM. For CNC(=O)CN1C[C@@H](C(=O)Nc2cncc3cc(Cl)ccc23)c2cc(Cl)ccc2C1=O (stereo in doubt), the IC50 was 939 nM. CC(CNC(=O)c1cnc2ccccn12)Nc1nc2ccccc2o1 (stereo not drawn) showed an IC50 greater than 99500 nM. CCS(=O)(=O)c1cc(Cl)cc(CNS(=O)(=O)c2cccs2)c1 showed an IC50 greater than 99500 nM. For O=C(CCl)N1CCN(C(c2ccccc2)C2CCCCC2)CC1 (stereo not drawn), the IC50 was 5720 nM and 2980 nM. For CCC1(C(=O)Nc2cncc3ccccc23)CNC(=O)c2ccc(Cl)cc21 (stereo not drawn), the IC50 was 1180 nM. Molecule O=C(Nc1cncc2ccccc12)C(NC[C@@H]1CC[C@H](C(=O)N2CCCC2)O1)c1cccc(Cl)c1 (stereo in doubt) has an IC50 of 2770 nM. In the case of O=C(Cc1cc(Cl)cc(Nc2ccccc2Cc2ccccc2)c1)Nc1cncc2ccccc12, the IC50 is reported as 1970 nM. With O=C(Cc1cc(Cl)cc(N(C2CCCCC2)C2CCCCC2)c1)Nc1cncc2ccccc12 the IC50 was 2300 nM. In the case of COCc1nc(C)c(C(=O)N(c2ccc(C(C)(C)C)cc2)C(C(=O)NCCc2cccc(F)c2)c2cccnc2)s1 (stereo not drawn), the IC50 is reported as greater than 99500 nM. Molecule CCS(=O)(=O)Nc1ccc2cncc(NC(=O)Cc3cccc(Cl)c3)c2c1 has an IC50 of 1020 nM. COCCN(C)S(=O)(=O)N1Cc2ccc(Cl)cc2C2(CCN(c3cncc4ccccc34)C2=O)C1 (stereo not drawn) was tested, and the IC50 was 993 nM. Work on Cn1cc(C(=O)N(c2ccc(C(C)(C)C)cc2)C(C(=O)NCCc2cccc(F)c2)c2cccnc2)ncc1=O (stereo not drawn) yielded an IC50 greater than 99500 nM. In the case of O=C(NCCc1cccc(F)c1)C(c1cccnc1)N(C(=O)c1cocn1)c1ccc2ncsc2c1 (stereo not drawn), the IC50 is reported as 60500 nM. Molecule O=C(Cc1cc(Cl)cc(Nc2ncc(Br)c(C(F)(F)F)n2)c1)Nc1cncc2ccccc12 has an IC50 of 1840 nM. Work on O=C(Nc1ccc2nncn2c1)c1ccc2scnc2c1 yielded an IC50 greater than 99500 nM. For O=C(Nc1cncc2ccccc12)C1CN(Cc2nnc[nH]2)Cc2ccc(Cl)cc21 (stereo not drawn), the IC50 was 784 nM. O=C(Nc1cncc2ccccc12)C1COc2ccc(Cl)cc21 (stereo not drawn) gave an IC50 of 764 nM. CC(C)Oc1ccc(N(C(=O)c2cocn2)C(C(=O)NCCc2cccc(F)c2)c2cccnc2)cc1 (stereo not drawn) showed an IC50 of 609 nM. C=CC(=O)N(c1ccc(C(C)(C)C)cc1)C(C(=O)NCCc1cccc(F)c1)c1cncc(C)c1 (stereo not drawn) was tested, and the IC50 was 11600 nM. With CCn1c2ccccc2c2cc(Nc3cc(Cl)cc(CC(=O)Nc4cncc5ccccc45)c3)ccc21 the IC50 was 2730 nM. CS(=O)(=O)c1ccc2c(NC(=O)C3CCOc4ccc(Cl)cc43)cncc2c1 (stereo not drawn) was tested, and the IC50 was 427 nM. With O=C(O)CC1(C(=O)Nc2cncc3ccccc23)CCOc2ccc(Cl)cc21 (stereo not drawn) the IC50 was 31400 nM and > 9950 nM. Cc1ccc(N(C(=O)c2cocn2)C(C(=O)NCCc2cccc(F)c2)c2cccnc2)cc1 (stereo not drawn) gave an IC50 of 50200 nM. For O=C(C[C@]1(C(=O)Nc2cncc3ccccc23)CCOc2ccc(Cl)cc21)N1CCN(C2CCOC2)CC1 (stereo in doubt), the IC50 was 1990 nM. In the case of CN1C(=O)c2ccc(Nc3cc(Cl)cc(CC(=O)Nc4cncc5ccccc45)c3)cc2C1=O, the IC50 is reported as 1660 nM. Molecule O=C(Cn1nnc2ccccc21)N(Cc1ccccn1)c1ccc(-n2cnnc2)cc1 has an IC50 greater than 99500 nM. For CCc1cc(F)ccc1-c1cc(Cl)cc(CC(=O)Nc2cnccc2C)c1, the IC50 was 31600 nM. With CN(C(=O)Cn1nnc2ccccc21)c1ccc(Oc2ccc(C(F)(F)F)cn2)cc1 the IC50 was 37800 nM. In the case of CC(C)(C)c1ccc(N(C(=O)c2cc(CO)n[nH]2)C(C(=O)NCCc2cccc(F)c2)c2cccnc2)cc1 (stereo not drawn), the IC50 is reported as 18800 nM. For CCCc1cc2c(cc1S(=O)(=O)N1CCN(c3ccccc3OC)CC1)OCO2, the IC50 was greater than 99500 nM. Molecule O=C(Cc1cc(Cl)cc(Nc2cccc(C(F)(F)F)c2F)c1)Nc1cncc2ccccc12 has an IC50 of 1840 nM. In the case of CC(NC(=O)COc1ccc(C(N)=O)cc1)(C(=O)Nc1cncc2ccccc12)c1ccc(Cl)c(Cl)c1 (stereo not drawn), the IC50 is reported as 10500 nM and 14300 nM. For CCNC(=O)CN1CC(C(=O)Nc2cncc3cc(F)ccc23)c2cc(Cl)ccc2C1=O (stereo not drawn), the IC50 was 161 nM.
